Article PMC8688152, “Distinct classes of potassium channels fused to GPCRs as electrical signaling biosensors” (Cell Reports Methods, 2021)

Experiments:
M2_T(G293E)-00-40 = molecular target: T1, M2_T(G293E)-00-40 (UniProt P08172+P97438, G308E); type: cell-based, human (M2), mouse (TREK-1); conditions: ACh 5 μM; TEVC, Xenopus oocytes; mean ± SEM
T1 construct: full-length (−00) or M2 deleted of its last nine residues (−09) in the indicated ICCRs; expressed in transfected cells; host or cells: Xenopus oocytes (mRNA injection)
Experimental: (§1) Microelectrodes were filled with […]. […] The membrane voltage was clamped to −50 mV.

M2_T-09-43 = molecular target: T2, M2_T-09-43 (UniProt P08172+P97438); assay: TEVC recording of M2_T-09-43 in Xenopus oocytes; type: cell-based, human (M2), mouse (TREK-1); conditions: ACh 5 μM
T2 construct: expressed in transfected cells; host or cells: Xenopus oocytes (mRNA injection); gene synthesized by ATG:biosynthetics
Experimental: as §1

[1] = test system: M2_Kcv-09-xx constructs with larger deletions up to 12 residues; type: cell-based, human (M2), Paramecium bursaria chlorella virus 1 (Kcv); conditions: ACh 5 μM, TEVC
Experimental: Xenopus oocytes were prepared as previously reported ([Moreau et al., 2008]). Briefly, after surgical retrieval, the oocytes were defolliculated by type 1A collagenase. Each oocyte was injected with 50 nl of RNAse-free water containing the desired mRNAs. The mRNA quantities used per oocyte were: ICCR with Kcv, 2.7 ng (M2_Kcv and D2_Kcv) and 2.9 ng (OXTR_Kcv); ICCR with mTREK-1, 4.2 ng; ICCR with Kir6.2, 4.3 ng; M2, 2.3 ng; D2, 2.2 ng; Kir3.4T, 2.2 ng; Kcv 0.46 ng and mTREK-1, 2.1 ng. Microinjected oocytes were incubated 2 to 3 days at 19°C in modified-Barth's solution (in mM: 1 KCl, 0.82 MgSO4, 88 NaCl, 2.4 NaHCO3, 0.41 CaCl2, 16 HEPES, pH 7.4) supplemented with 100 U.ml^−1 of penicillin and streptomycin and 0.1 mg.mL^−1 of gentamycin. Animal handling and experiments fully conformed to European regulations and were approved by the French Ministry of Higher Education and Research (APAFIS#4420-2016030813053199 v4 to CM). […]
Two-electrode voltage-clamp (TEVC) recordings were performed automatically with HiClamp robots (MultiChannel Systems). […] Ligand effects were measured in high potassium concentration buffer with the membrane potential clamped to −50 mV and at 19°C.
Change of potassium current induced by ligand was calculated either with the barium-sensitive currents as a 0-reference for Kcv-based ICCRs or with the currents in ND96 for mTREK-1 ICCRs. […]

M2_T-00-40 = molecular target: T3, M2_T-00-40 (UniProt P08172+P97438); assay: TEVC recording of M2_T-00-40 ICCR in Xenopus oocytes; type: cell-based, human (M2), mouse (TREK-1); conditions: 91 mM K+, Vm = −50 mV, mean ± SEM
T3 construct: full-length (−00) or M2 deleted of its last nine residues (−09) in the indicated ICCRs; expressed in transfected cells; host or cells: Xenopus oocytes (mRNA injection)
Experimental: as §1

How did the “activation induced by ACh on the hyperactive G293E mutant of M2_T-00-40” value (M2_T(G293E)-00-40) turn out when `CC(=O)OCC[N+](C)(C)C` [ACh, acetylcholine] was run?
The value was 32.5% ± 3.6%.

And the “regulation of M2_T-09-43 by ACh” value (M2_T-09-43)?
The value was “no significant regulation”.

And the “response of M2_Kcv-09 constructs with larger deletions up to 12 residues to ACh” value [1]?
Its value is “did not yield significant responses”.

And the “activation: % of current change induced by ACh 5 μM on M2_T-00-40” value (M2_T-00-40)?
The value was 20.2% ± 3.5%.
